Drawing on patent US9657018B2, “Antagonists acting at multiple prostaglandin receptors for the treatment of inflammation” (Allergan, Inc., priority 2014, dated 2017), this text covers Kb for four compounds.

Common to all, as to assay type: cell-based
For assay [1], the target named is T1, human prostanoid DP1 receptor (Homo sapiens, UniProt Q13258).
T1 construct: expressed in transfected cells
T1 sequence (Q13258 1-359): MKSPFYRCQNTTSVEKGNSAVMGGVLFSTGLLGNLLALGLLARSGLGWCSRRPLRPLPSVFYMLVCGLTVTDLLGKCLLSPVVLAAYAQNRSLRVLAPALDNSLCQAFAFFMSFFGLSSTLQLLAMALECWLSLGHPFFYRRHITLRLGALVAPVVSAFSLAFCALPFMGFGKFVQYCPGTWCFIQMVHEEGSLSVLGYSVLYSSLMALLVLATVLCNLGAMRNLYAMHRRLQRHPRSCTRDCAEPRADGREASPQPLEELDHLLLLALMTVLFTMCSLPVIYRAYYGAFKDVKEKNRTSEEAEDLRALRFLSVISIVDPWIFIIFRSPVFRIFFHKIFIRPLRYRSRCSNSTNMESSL
Description: FLIPR Ca2+ signaling antagonist assay, DP1 receptor stable cell line. Particulars: human recombinant DP1 + chimeric Gqs in HEK-293 EBNA cells; standard agonist BW 245C; NA = no antagonism or Kb>=10,000 nM. How it is done:
(§1) The above compounds were tested for PG antagonist activity as follows using human recombinant prostanoid receptor (DP1, EP1-4, FP, IP and TP) stable cell lines:
(§2) In order to measure the response of Gs and Gi coupled prostanoid receptors as a Ca^2+ signal, chimeric G protein cDNAs were used. Stable cell lines over-expressing human prostanoid DP1, EP1-4, FP, IP, and TP receptors were established as follows:
(§3) Briefly, human prostanoid DP1, EP2, and EP4 receptor cDNAs were co-transfected with chimeric Gqs cDNA containing a haemagglutanin (HA) epitope; human prostanoid EP3 receptors were co-transfected with chimeric Gqi-HA; human EP1, FP, IP, and TP receptor cDNAs were expressed with no exogenous G-proteins. Gqs and Gqi chimeric cDNAs (Molecular Devices, Sunnyvale, Calif., U.S.A.), as well as cDNAs of prostanoid receptors, were cloned into a pCEP4 vector with a hygromycin B selection marker. Transfection into HEK-293 EBNA (Epstein-Barr virus nuclear antigen) cells was achieved by the FuGENE 6 transfection Reagent (Roche Applied Science, Indianapolis, Ind., USA). Stable transfectants were selected according to hygromycin resistance. Because Gqs and Gqi contained an HA epitope, G-protein expression was detected by Western blotting analysis using anti-mouse HA monoclonal antibody and horseradish peroxidase (HRP)-conjugated secondary antibody, while functional expression of prostanoid receptors was detected by FLIPR screening (Matias et al., 2004). These stable cell lines were validated using previously published antagonists at 10 μM against serial dilutions of standard agonists by FLIPR functional assays for Ca^2+ Signaling (as described below).
(§4) Ca^2+ signaling studies were performed using a FLIPR TETRA system (Molecular Devices, Sunnyvale, Calif., USA) in the 384-format. This is a high-throughput instrument for cell-based assays to monitor Ca^2+ signaling associated with GPCRs and ion channels. Cells were seeded at a density of 5×10^4 cells/well in BioCoat poly-D-lysine coated, black wall, clear bottom 384-well plates (BD Biosciences, Franklin lakes, NJ, USA) and allowed to attach overnight in an incubator at 37° C. The cells were then washed twice with HBSS-HEPES buffer (Hanks' balanced salt solution without bicarbonate and phenol red, 20 mM HEPES, pH 7.4) using an ELx405 Select CW Microplate Washer (BioTek, Winooski, Vt., USA). After 60 min of dye-loading in the dark using the Ca^2+-sensitive dye Fluo-4AM (Invitrogen, Carlsbad, Calif., USA), at a final concentration of 2×10^−6M, the plates were washed 4 times with HBSS-HEPES buffer to remove excess dye and leaving 50 μl of buffer in each well. The plates were then placed in the FLIPR TETRA instrument and allowed to equilibrate at 37° C. AGN-211377 was added in a 25 μl volume to each well to give final concentrations of 0.1 μl. M, 0.4M, 1 μM, 3 μl. M, 10 μl. M, and 30 μl. M; or 0.067 μM, 0.4M, 0.67 μM, and 1 μM for cells over-expressing TP receptors. After 4.5 minutes, a 7-point serial dilution of the standard agonist for the corresponding receptor, in a 25 μl volume was injected at the final concentrations from 10^−11M to 10^−5M in 10-fold serial dilution increments for cells expressing human recombinant DP1, EP1, EP2, EP3, EP4, FP, and IP receptors. The dose range for the standard agonist for human recombinant TP receptors was from 10^−12M to 10^−6M. HBSS-HEPES buffer was used as the negative control for the standard agonists. Cells were excited with LED (light emitting diode) excitation at 470-495 nm and emission was measured through an emission filter at 515-575 nm. Assay plates were read for 3.5 minutes using the FLIPR^TETRA. The peak increase in fluorescence intensity was recorded for each well. On each plate, negative controls, dose response of positive controls, and co-treatments of antagonist-agonist for each dose were in triplicates. Standard agonists were as follows: DP=BW 245C, EP1-EP4=PGE2, FP=17-phenyl-PGF2a, IP=Cicaprost, and TP=U-46619. […]

In assay [2] the target is T2, human prostanoid EP2 receptor (Homo sapiens, UniProt P43116).
T2 construct: expressed in transfected cells
T2 sequence (P43116 whole entry): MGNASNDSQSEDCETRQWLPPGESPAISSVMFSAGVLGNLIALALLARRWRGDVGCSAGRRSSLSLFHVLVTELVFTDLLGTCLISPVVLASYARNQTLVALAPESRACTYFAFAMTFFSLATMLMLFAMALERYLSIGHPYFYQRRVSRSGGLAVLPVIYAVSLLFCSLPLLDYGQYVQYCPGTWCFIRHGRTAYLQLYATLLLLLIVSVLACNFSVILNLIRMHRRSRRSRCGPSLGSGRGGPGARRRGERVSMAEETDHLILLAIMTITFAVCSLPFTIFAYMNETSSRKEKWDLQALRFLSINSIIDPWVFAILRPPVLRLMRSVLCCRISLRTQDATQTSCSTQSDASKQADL
In words: FLIPR Ca2+ signaling antagonist assay, EP2 receptor stable cell line. The settings on record: human recombinant EP2 + chimeric Gqs in HEK-293 EBNA cells; standard agonist PGE2; NA = no antagonism or Kb>=10,000 nM. As for the experimental part: as §1, §2, §3, §4

Assay [3] has as its target T3, human prostanoid EP3 receptor (Homo sapiens, UniProt P43115).
T3 construct: expressed in transfected cells
T3 sequence (P43115 1-390): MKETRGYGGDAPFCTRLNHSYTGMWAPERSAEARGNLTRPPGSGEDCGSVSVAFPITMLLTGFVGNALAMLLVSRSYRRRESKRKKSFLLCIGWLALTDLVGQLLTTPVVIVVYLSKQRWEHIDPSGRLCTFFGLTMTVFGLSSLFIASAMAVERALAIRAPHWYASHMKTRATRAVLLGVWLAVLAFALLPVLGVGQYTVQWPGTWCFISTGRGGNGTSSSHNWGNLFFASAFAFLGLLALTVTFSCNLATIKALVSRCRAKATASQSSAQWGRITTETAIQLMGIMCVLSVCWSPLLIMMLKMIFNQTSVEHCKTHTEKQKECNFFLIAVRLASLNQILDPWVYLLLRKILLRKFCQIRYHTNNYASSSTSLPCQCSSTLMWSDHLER
Description: FLIPR Ca2+ signaling antagonist assay, EP3 receptor stable cell line. Particulars: human recombinant EP3 + chimeric Gqi in HEK-293 EBNA cells; standard agonist PGE2; NA = no antagonism or Kb>=10,000 nM. How it is done:
as §1, §2, §3, §4

The target of assay [4] is T4, human prostanoid EP4 receptor (Homo sapiens, UniProt P35408).
T4 construct: expressed in transfected cells
T4 sequence (P35408 whole entry): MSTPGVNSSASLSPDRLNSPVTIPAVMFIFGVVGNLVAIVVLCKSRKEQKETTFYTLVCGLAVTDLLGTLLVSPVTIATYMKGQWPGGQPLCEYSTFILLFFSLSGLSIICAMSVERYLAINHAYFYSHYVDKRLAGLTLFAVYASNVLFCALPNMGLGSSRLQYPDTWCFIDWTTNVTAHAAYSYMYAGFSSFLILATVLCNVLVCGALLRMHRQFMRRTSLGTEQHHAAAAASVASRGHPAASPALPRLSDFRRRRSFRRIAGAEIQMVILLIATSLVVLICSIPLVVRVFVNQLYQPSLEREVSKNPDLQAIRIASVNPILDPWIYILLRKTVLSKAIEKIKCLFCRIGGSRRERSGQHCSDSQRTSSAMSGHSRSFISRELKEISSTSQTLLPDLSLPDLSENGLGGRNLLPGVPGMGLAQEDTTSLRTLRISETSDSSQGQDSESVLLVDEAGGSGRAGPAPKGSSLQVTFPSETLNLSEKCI
Description: FLIPR Ca2+ signaling antagonist assay, EP4 receptor stable cell line. Particulars: human recombinant EP4 + chimeric Gqs in HEK-293 EBNA cells; standard agonist PGE2; NA = no antagonism or Kb>=10,000 nM. How it is done:
as §1, §2, §3, §4

The structures appear in SMILES notation. Bounds are passed on as bounds.

For the compound `CC(C)Cn1ncc2cc(OC(F)(F)F)cc(Cn3cnc4cc(C(=O)O)ccc43)c21` [Compound 56, 1-(1-Isobutyl-5-trifluoromethoxy-1H-indazol-7-ylmethyl)-1H-benzoimidazole-5-carboxylic acid], the Kb (as a rule, the affinity of an antagonist, worked out from how it opposes an agonist) was 5.2 µM in assay [1], more than 10 µM in assay [2], more than 10 µM in assay [3] and 0.006 µM in assay [4].

With `CC(C)Cn1ncc2cc(Cl)cc(Cc3ncc4cc(C(=O)O)ccn34)c21` [Compound 61, 3-[(5-Chloro-1-isobutyl-indazol-7-yl)methyl]imidazo[1,5-a]pyridine-7-carboxylic acid], the antagonist equilibrium constant (Kb) in assay [1] is 4.7 µM; in assay [2] it was more than 10 µM; in assay [3] it was more than 10 µM; in assay [4] it was 0.2 µM.

On to `CC(C)Cn1ncc2cc(Cl)cc(Cn3nc(N)c4cc(C(=O)O)ccc43)c21` [Compound 68, 3-Amino-1-[(5-chloro-1-isobutyl-indazol-7-yl)methyl]indazole-5-carboxylic acid], for which the Kb in assay [1] is 3.7 µM; in assay [2] it was more than 10 µM; in assay [3] it was more than 10 µM; in assay [4] it was 0.06 µM.

Consider `CNc1nn(Cc2cc(Cl)cc3cnn(CC(C)C)c23)c2ccc(C(=O)O)cc12` [Compound 70, 1-[(5-Chloro-1-isobutyl-indazol-7-yl)methyl]-3-(methylamino)indazole-5-carboxylic acid], for which the Kb was determined as 1 µM in assay [1], 7 µM in assay [2], 8.1 µM in assay [3] and 0.001 µM in assay [4].
